Measured values: paper PMC3930709, “Selective Activation of hTRPV1 by N-Geranyl Cyclopropylcarboxamide, an Amiloride-Insensitive Salt Taste Enhancer” (PLoS ONE, 2014)

Columns and labels:
αβγ hENaC = target: T1, αβγ hENaC (Homo sapiens, UniProt P37088+P51168+P51170); experiment: Membrane potential assay (FMP dye) on αβγ hENaC-expressing cells; type: cell-based; conditions: relative to buffer alone, 0.01-10 µM
T1 construct: GFP; host or cells: HEK293T
T1 sequence (P37088 1-669): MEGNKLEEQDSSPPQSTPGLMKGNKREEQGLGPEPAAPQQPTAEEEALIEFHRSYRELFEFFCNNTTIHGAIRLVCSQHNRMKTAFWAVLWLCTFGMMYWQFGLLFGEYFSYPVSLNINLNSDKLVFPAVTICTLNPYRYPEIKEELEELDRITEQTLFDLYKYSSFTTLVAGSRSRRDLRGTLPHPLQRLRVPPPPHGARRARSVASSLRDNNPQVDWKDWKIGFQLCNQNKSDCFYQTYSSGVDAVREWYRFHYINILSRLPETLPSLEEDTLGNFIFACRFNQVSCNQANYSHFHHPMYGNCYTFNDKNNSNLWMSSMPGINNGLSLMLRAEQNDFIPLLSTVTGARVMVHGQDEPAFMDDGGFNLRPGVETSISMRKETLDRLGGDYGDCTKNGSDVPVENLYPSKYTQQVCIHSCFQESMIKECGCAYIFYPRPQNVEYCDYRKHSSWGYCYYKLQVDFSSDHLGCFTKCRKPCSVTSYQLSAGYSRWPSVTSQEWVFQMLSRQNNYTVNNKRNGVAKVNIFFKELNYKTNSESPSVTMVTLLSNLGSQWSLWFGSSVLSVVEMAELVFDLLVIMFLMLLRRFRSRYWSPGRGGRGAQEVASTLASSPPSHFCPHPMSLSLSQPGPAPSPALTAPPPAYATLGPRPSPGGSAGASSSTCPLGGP
T1 sequence (P51168 1-640): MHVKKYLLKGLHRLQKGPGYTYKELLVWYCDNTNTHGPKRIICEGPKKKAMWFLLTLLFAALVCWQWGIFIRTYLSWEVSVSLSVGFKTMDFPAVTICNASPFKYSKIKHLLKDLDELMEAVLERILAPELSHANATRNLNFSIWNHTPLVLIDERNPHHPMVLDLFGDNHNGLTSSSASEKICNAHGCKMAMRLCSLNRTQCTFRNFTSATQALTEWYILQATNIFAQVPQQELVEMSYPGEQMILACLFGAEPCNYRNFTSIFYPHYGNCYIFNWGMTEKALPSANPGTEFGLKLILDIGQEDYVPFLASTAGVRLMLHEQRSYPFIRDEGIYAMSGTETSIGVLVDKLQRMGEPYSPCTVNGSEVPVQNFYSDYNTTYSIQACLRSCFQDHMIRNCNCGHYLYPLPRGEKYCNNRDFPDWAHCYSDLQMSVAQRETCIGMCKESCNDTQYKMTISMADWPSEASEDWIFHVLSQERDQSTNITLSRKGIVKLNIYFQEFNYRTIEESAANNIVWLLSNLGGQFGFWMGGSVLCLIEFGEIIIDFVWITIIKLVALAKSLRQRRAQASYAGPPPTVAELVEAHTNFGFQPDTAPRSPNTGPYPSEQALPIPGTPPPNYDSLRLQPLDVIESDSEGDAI
T1 sequence (P51170 1-649): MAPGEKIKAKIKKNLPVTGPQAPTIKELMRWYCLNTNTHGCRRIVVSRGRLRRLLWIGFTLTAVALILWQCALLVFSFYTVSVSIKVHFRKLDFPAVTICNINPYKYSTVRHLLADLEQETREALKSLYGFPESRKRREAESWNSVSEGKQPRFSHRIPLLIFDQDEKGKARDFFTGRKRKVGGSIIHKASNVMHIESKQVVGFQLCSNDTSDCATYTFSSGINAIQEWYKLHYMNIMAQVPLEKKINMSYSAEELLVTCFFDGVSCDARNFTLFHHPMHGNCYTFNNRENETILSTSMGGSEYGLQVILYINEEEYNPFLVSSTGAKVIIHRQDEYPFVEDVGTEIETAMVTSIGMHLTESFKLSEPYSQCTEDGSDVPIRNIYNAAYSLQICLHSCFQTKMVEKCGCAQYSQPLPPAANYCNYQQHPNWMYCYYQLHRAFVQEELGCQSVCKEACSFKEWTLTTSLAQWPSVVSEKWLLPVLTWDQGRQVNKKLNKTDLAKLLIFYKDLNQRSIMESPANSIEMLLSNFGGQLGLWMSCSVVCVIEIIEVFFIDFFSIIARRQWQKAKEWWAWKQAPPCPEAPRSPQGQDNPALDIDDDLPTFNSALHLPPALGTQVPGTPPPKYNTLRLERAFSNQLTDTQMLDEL
Description: The α, β, and γ hENaC subunits were cloned from OriGene (Rockville, MD; GenBank accession number […] for SCNN1A, NM_000336 for SCNN1B and NM_001039 for SCNN1G). α, GFP-tagged β, and γ hENaC were cloned into a CMV promoter-based vector and expressed constitutively. The HEK293T cells were seeded onto a 35 mm dish and transfected with α, β, and γ hENaC expression plasmid using Lipofectamine 2000 (Invitrogen). Then, transfected cells were seeded onto 96-well black-wall plate for 18–26 h prior to their use in an experiment.
hENaC-expressing cells were characterized using FLIPER Membrane Potential (FMP) Assay Kit (Molecular Devices Corporation, Sunnyvale, CA, USA). In this assay, changes in the membrane potential were quantified via fluorescence change caused by FMP dye. The hENaC-expressing cells were washed with assay buffer (containing: 130 mM NaCl, 10 mM glucose, 5 mM KCl, 2 mM CaCl2, 1.2 mM MgCl2, and 10 mM HEPES, pH adjusted to 7.4 with NaOH) and subsequently, FMP blue-dye in assay buffer was loaded into the cells at room temperature for 30 min. After dye treatment, S3969 (0.03−10 µM), an ENaC agonist, S3969+Bz (ENaC antagonist, 0.01 µM), or NGCC (0.01−10 µM) was treated to hENaC-expressing cells. The plate was assayed in a FlexStation III plate reader (Molecular devices Corporation) by excitation at 530 nm and measuring the emission at 560 nm.

[1] = test system: amiloride-insensitive salt taste pathway; set-up: method as in PMID 23221408; conditions: WT and TRPV1 KO mice, electrophysiological studies; cited from earlier work

CC(C)=CCC/C(C)=C/CNC(=O)C1CC1 [NGCC, N-geranylcyclopropylcarboxamide]
change in membrane potential in αβγ hENaC-expressing cells (αβγ hENaC): no significant changes in membrane potential
effect on the amiloride-insensitive salt taste pathway [1]: produced biphasic effects
